The source of these data is patent publication US20130029936A1, “Inclusion Compounds of Fumagillol Derivative or its Salt, and Pharmaceutical Compositions Comprising the Same” (priority 2002, published 2013).

A short description of data set [1]: Stability of lyophilized powders under storage at 25° C. (residual amount by HPLC). It is filed as physicochemical. The method, then: The stability of the lyophilized powders obtained in Example 6 was compared with that of O-(4-dimethylaminoethoxycinnamoyl)fumagillol alone under storage at 25° C. The residual amount of O-(4-dimethylaminoethoxycinnamoyl)fumagillol was determined by HPLC.
The stability of the lyophilized powders obtained in Example 7 was compared with that of O-(3,4,5-trimethoxycinnamoyl)fumagillol alone at 25° C. The residual amount of O-(3,4,5-trimethoxycinnamoyl)fumagillol was determined by HPLC.

A short description of data set [2]: Solubility in phosphate buffer (pH 6.7) containing hydroxypropyl-β-cyclodextrin. The format is physicochemical. The conditions noted are these: 4° C., 72 hr. The protocol:
O-(4-dimethylaminoethoxycinnamoyl)fumagillol (50 mg) was added to phosphate buffer (pH 6.7) containing 1.5, 3.5, 7.0 and 14.0 w/v % hydroxypropyl-β-cyclodextrin, respectively, and stirred at 4° C. After 72 hr, the mixture was filtered with 0.2 μm membrabe filter and O-(4-dimethylaminoethoxycinnamoyl)fumagillol in the filtrate was determined by high pressure liquid chromatography (HPLC). The solubility of O-(4-dimethylaminoethoxycinnamoyl)fumagillol as a function of the hydroxypropyl-β-cyclodextrin concentration was shown in Table 5.

Another data set relates to Lewis lung carcinoma. Kind of data set: Tumor growth inhibition, subcutaneously implanted Lewis lung carcinoma. The format is in vivo. The conditions noted are these: BDF1 mice. The protocol:
Pre-prepared tumor mass (Lewis lung carcinoma) of 8 mm^3 was subcutaneously implanted into the right axillary region of BDF1 mice (4 weeks). When the tumor size was 100-200 mm^3, mice were divided randomly into treatment group and control group. The treatment group was administered subcutaneously with O-(4-ethylaminoethoxycinnamoyl)fumagillol or the complex of O-(4-ethylaminoethoxycinnamoyl)fumagillol with hydroxypropyl-β-cyclodextrin at a dose of 30 mg/kg or 120 mg/kg as O-(4-ethylaminoethoxycinnamoyl)fumagillol every other day for 5 injections, while the control group was given injections of 0.2 ml of phosphate buffered saline. The tumors were weighed on the final day, and tumor volume was calculated using the following equation:
Tumor volume (mm^3)=a×b^2×0.5
(a: the longest diameter, b: the shortest diatheter) Inhibition ratio (IR %) of the treatment group relative to the untreated control group was calculated using the following equation:
=(1−Tumor volume of Treatment group/Tumor volume of Control group)×100
=(1−Tumor weight of Treatment group/Tumor weight of Control group)×100

A short description of data set [3]: Solubility in hydroxypropyl-β-cyclodextrin solution (HPLC of filtrate). The format is physicochemical.
Test in data set [4]: as above
It is filed as physicochemical. Conditions: 4° C., 72 hr. The method, then:
O-(4-dimethylaminoethoxycinnamoyl)fumagillol (30 mg) was added to 1.5, 3.5, 7.0, 14.0, 28.0 w/v % hydroxypropyl-β-cyclodextrin solution, respectively, and stirred at 4° C. After 72 hr, the mixture was filtered with 0.2 μm membrabe filter and O-(4-dimethylaminoethoxycinnamoyl)fumagillol in the filtrate was determined by high pressure liquid chromatography (HPLC). The solubility of O-(4-dimethylamino ethoxycinnamoyl)fumagillol as a function of the hydroxypropyl-β-cyclodextrin concentration was represented in Table 1.
O-(3,4,5-trimethoxycinnamoyl)fumagillol (20 mg) was added to 1.5, 3.5, 7.0, 14.0, 28.0 w/v % hydroxypropyl-β-cyclodextrin solution, respectively, and stirred at 4° C. After 72 hr, the mixture was filtered with 0.2 μm membrabe filter and O-(3,4,5-trimethoxycinnamoyl)fumagillol in the filtrate was determined by high pressure liquid chromatography (HPLC). The solubility of O-(3,4,5-trimethoxycinnamoyl)fumagillol as a function of the hydroxypropyl-β-cyclodextrin concentration was shown in Table 3.

A short description of data set [5]: Solubility in sulfobutylether-7-β-cyclodextrin solution (HPLC of filtrate). Conditions: 4° C., 72 hr. The format is physicochemical. The protocol: O-(4-dimethylaminoethoxycinnamoyl)fumagillol (30 mg) was added to 1.5, 3.5, 7.0, 14.0, 28.0 w/v % sulfobutylether-7-β-cyclodextrin solution, respectively, and stirred at 4° C. After 72 hr, the mixture was filtered with 0.2 μm membrabe filter and O-(4-dimethylaminoethoxycinnamoyl)fumagillol in the filtrate was determined by high pressure liquid chromatography (HPLC). The solubility of O-(4-dimethylaminoethoxycinnamoyl)fumagillol as a function of the sulfobutylether-7-β-cyclodextrin concentration was represented in Table 2.
O-(3,4,5-trimethoxycinnamoyl)fumagillol (20 mg) was added to 1.5, 3.5, 7.0, 14.0, 28.0 w/v % sulfobutylether-7-β-cyclodextrin solution, respectively, and stirred at 4° C. After 72 hr, the mixture was filtered with 0.2 μm membrabe filter and O-(3,4,5-trimethoxycinnamoyl)fumagillol in the filtrate was determined by high pressure liquid chromatography (HPLC). The solubility of O-(3,4,5-trimethoxycinnamoyl)fumagillol as a function of the sulfobutyletyher-7-β-cyclodextrin concentration was shown in Table 4.

A short description of data set [6]: Solubility evaluation with cosolvents and surfactants. The format is physicochemical. The source says:
However, these formulations have a number of disadvantages, which are the inability to guarantee the long-term stability due to facile hydrolysis in solution state, the inability to be buffered due to increased sensitivity to ions resulting in precipitation and further, the toxicity of the surfactants.

Data set [7] in a line: Stability (hydrolysis) in acidic, neutral and basic solutions at 50° C. with hydroxypropyl-β-cyclodextrin. The format is physicochemical. The method, then: The stability of O-(4-dimethylaminoethoxycinnamoyl)fumagillol was investigated in the presence of various concentrations of hydroxypropyl-β-cyclodextrin in acidic, neutral and basic solutions at 50° C. The residual amount of O-(4-dimethylaminoethoxycinnamoyl)fumagillol in each solution was determined by HPLC.

For data set [8] the following is noted: cited from earlier work.
Where [9] appears, read: Total Dose 150 mg/kg (30 mg/kg subcutaneously every other day, 5 injections).
Setting [10] is: Total Dose 600 mg/kg (120 mg/kg subcutaneously every other day, 5 injections).
The mark [11] stands for this setting: 0 w/v % hydroxypropyl-β-cyclodextrin, 4° C., 72 hr.
The mark [12] stands for this setting: 1.5 w/v % hydroxypropyl-β-cyclodextrin.
Setting [13] is: 3.5 w/v % hydroxypropyl-β-cyclodextrin.
Setting [14] is: 14.0 w/v % hydroxypropyl-β-cyclodextrin.
Where [15] appears, read: 28.0 w/v % hydroxypropyl-β-cyclodextrin.
Setting [16] is: 0 w/v % sulfobutylether-7-β-cyclodextrin.
Where [17] appears, read: 1.5 w/v % sulfobutylether-7-β-cyclodextrin.
Setting [18] is: 3.5 w/v % sulfobutylether-7-β-cyclodextrin.
[19] abbreviates: 14.0 w/v % sulfobutylether-7-β-cyclodextrin.
Where [20] appears, read: 28.0 w/v % sulfobutylether-7-β-cyclodextrin.
Where [21] appears, read: Acidic (pH 3.2), 2 w/v % hydroxypropyl-β-cyclodextrin.
Setting [22] is: Acidic (pH 3.2), 5 w/v % hydroxypropyl-β-cyclodextrin.
Setting [23] is: Acidic (pH 3.2), 10 w/v % hydroxypropyl-β-cyclodextrin.
Setting [24] is: Acidic (pH 3.2), 20 w/v % hydroxypropyl-β-cyclodextrin.
Setting [25] is: Basic (pH 11.5), 2 w/v % hydroxypropyl-β-cyclodextrin.
Setting [26] is: Basic (pH 11.5), 5 w/v % hydroxypropyl-β-cyclodextrin.
Setting [27] is: Basic (pH 11.5), 10 w/v % hydroxypropyl-β-cyclodextrin.
The mark [28] stands for this setting: Basic (pH 11.5), 20 w/v % hydroxypropyl-β-cyclodextrin.
The mark [29] stands for this setting: Neutral (pH 7.2), 2 w/v % hydroxypropyl-β-cyclodextrin.
[30] abbreviates: Neutral (pH 7.2), 5 w/v % hydroxypropyl-β-cyclodextrin.
The mark [31] stands for this setting: Neutral (pH 7.2), 10 w/v % hydroxypropyl-β-cyclodextrin.
Setting [32] is: Neutral (pH 7.2), 20 w/v % hydroxypropyl-β-cyclodextrin.

Molecules are shown by their SMILES. Values after ≈ are worked out from the molar mass of the structure shown.

As for `CO[C@@H]1[C@H](OC(=O)C=Cc2ccc(OCCN(C)C)cc2)CC[C@]2(CO2)[C@H]1[C@@]1(C)O[C@@H]1CC=C(C)C` [O-(4-dimethylaminoethoxycinnamoyl)fumagillol], the “Residual amount of O-(4-dimethylaminoethoxycinnamoyl)fumagillol (%) after 1 month” value in data set [1] (storage at 25° C., after 1 month) is reported as 72.8%. In addition, in data set [1] (storage at 25° C., after 3 month), the “Residual amount of O-(4-dimethylaminoethoxycinnamoyl)fumagillol (%) after 3 month” value came out at 54.3%. Further, the Solubility in data set [2] (phosphate buffer pH 6.7, 0 w/v % hydroxypropyl-β-cyclodextrin) is 2380 µg/mL (≈ 4.76 mM); in data set [2] (phosphate buffer pH 6.7, 1.5 w/v % hydroxypropyl-β-cyclodextrin), 4240 µg/mL (≈ 8.49 mM); in data set [2] (phosphate buffer pH 6.7, 3.5 w/v % hydroxypropyl-β-cyclodextrin) it was 9860 µg/mL (≈ 19.7 mM); in [2] (phosphate buffer pH 6.7, 7.0 w/v % hydroxypropyl-β-cyclodextrin) it was 17590 µg/mL (≈ 35.2 mM); in data set [3] (setting [11]), 50 µg/mL (≈ 0.1 mM); in data set [3] (in water), 50 µg/mL (≈ 0.1 mM). For the same compound, the Solubility in data set [4] (setting [12]) worked out at 1030 µg/mL (≈ 2.06 mM); in data set [4] (setting [13]), 2930 µg/mL (≈ 5.86 mM); in [4] (setting [14]), 11540 µg/mL (≈ 23.1 mM); in data set [4] (setting [15]), 22640 µg/mL (≈ 45.3 mM); in data set [5] (setting [16]) it was 50 µg/mL (≈ 0.1 mM); in data set [5] (setting [17]), 870 µg/mL (≈ 1.74 mM). Also, the Solubility in data set [5] (setting [18]) is 2240 µg/mL (≈ 4.48 mM); in data set [5] (setting [19]), 10430 µg/mL (≈ 20.9 mM); in [5] (setting [20]), 21300 µg/mL (≈ 42.6 mM); in [6] (aqueous formulation containing 10% Cremophor-EL alone), “about 5 mg/ml”; in [6] (aqueous formulation containing a mixture of 10% ethanol and 10% Tween 80), “about 5 mg/ml”. Besides, the figures for the “Inhibition Ratio (%), Tumor Tissue Volume” value in the data set on Lewis lung carcinoma (setting [9]) and with Lewis lung carcinoma (setting [10]) were 37.7% and 63.3%, respectively. The “Inhibition Ratio (%), Tumor Tissue Weight” value was 33.6% with Lewis lung carcinoma (setting [9]) and 71.4% in the data set with Lewis lung carcinoma (setting [10]). Moreover, in data set [3] (depending the pH and the concentration of hydroxypropyl-β-cyclodextrin or sulfobutylether-7-β-cyclodextrin), the “increase of aqueous solubility” value is on record as 20-1000 fold. In addition, the “kobs (Hydrolysis Rate Constant)” value in data set [7] (Acidic (pH 3.2), 0 w/v % hydroxypropyl-β-cyclodextrin) was found to be 0.2042 h⁻¹; in data set [7] (setting [21]) it was 0.0976 h⁻¹; in [7] (setting [22]), 0.0848 h⁻¹; in [7] (setting [23]), 0.0754 h⁻¹; in [7] (setting [24]), 0.0665 h⁻¹; in data set [7] (Basic (pH 11.5), 0 w/v % hydroxypropyl-β-cyclodextrin), 0.0918 h⁻¹. The “kobs (Hydrolysis Rate Constant)” value in data set [7] (setting [25]) stood at 0.0816 h⁻¹; in data set [7] (setting [26]) it was 0.0580 h⁻¹; in [7] (setting [27]) it was 0.0453 h⁻¹; in data set [7] (setting [28]), 0.0294 h⁻¹; in data set [7] (Neutral (pH 7.2), 0 w/v % hydroxypropyl-β-cyclodextrin), 0.0162 h⁻¹; in data set [7] (setting [29]), 0.0141 h⁻¹. Further, the results for the “kobs (Hydrolysis Rate Constant)” value in data set [7] (setting [30]), in [7] (setting [31]) and in data set [7] (setting [32]) were 0.0137 h⁻¹, 0.0122 h⁻¹ and 0.0115 h⁻¹, respectively. The “Inhibition ratio (%)” value in [7] (setting [21]) stood at 52.20%; in [7] (setting [22]) it was 58.47%; in data set [7] (setting [23]), 63.08%; in data set [7] (setting [24]), 67.43%; in data set [7] (setting [25]), 5.00%; in data set [7] (setting [26]), 16.55%. In addition, the “Inhibition ratio (%)” value is listed as 22.77% in [7] (setting [27]); 30.56% in data set [7] (setting [28]); 12.96% in data set [7] (setting [29]); 15.43% in [7] (setting [30]); 24.96% in data set [7] (setting [31]); 29.01% in data set [7] (setting [32]).
With `COc1cc(C=CC(=O)OC2CCC3(CO3)C(C3(C)OC3CC=C(C)C)C2OC)cc(OC)c1OC` (centres unmarked) [O-(3,4,5-trimethoxycinnamoyl)fumagillol], the “Residual amount of O-(3,4,5-trimethoxycinnamoyl)fumagillol (%) after 1 month” value in [1] (25° C., after 1 month) was determined as 65.3%. For the same compound, the Solubility came to 2 µg/mL (≈ 0.00398 mM) in data set [3] (setting [11]); 430 µg/mL (≈ 0.856 mM) in data set [4] (setting [12]); 1520 µg/mL (≈ 3.02 mM) in [4] (setting [13]); 3540 µg/mL (≈ 7.04 mM) in data set [4] (7.0 w/v % hydroxypropyl-β-cyclodextrin); 6720 µg/mL (≈ 13.4 mM) in data set [4] (setting [14]); 12020 µg/mL (≈ 23.9 mM) in [4] (setting [15]). The Solubility in data set [5] (setting [16]) stood at 2 µg/mL (≈ 0.00398 mM); in [5] (setting [17]) it was 580 µg/mL (≈ 1.15 mM); in data set [5] (setting [18]) it was 1380 µg/mL (≈ 2.75 mM); in [5] (7.0 w/v % sulfobutylether-7-β-cyclodextrin), 2750 µg/mL (≈ 5.47 mM); in data set [5] (setting [19]), 5690 µg/mL (≈ 11.3 mM); in data set [5] (setting [20]) it was 11670 µg/mL (≈ 23.2 mM).
Take `OC[C@H]1O[C@@H]2O[C@H]3[C@H](O)[C@@H](O)[C@@H](O[C@H]4[C@H](O)[C@@H](O)[C@@H](O[C@H]5[C@H](O)[C@@H](O)[C@@H](O[C@H]6[C@H](O)[C@@H](O)[C@@H](O[C@H]7[C@H](O)[C@@H](O)[C@@H](O[C@H]8[C@H](O)[C@@H](O)[C@@H](O[C@H]1[C@H](O)[C@H]2O)O[C@@H]8CO)O[C@@H]7CO)O[C@@H]6CO)O[C@@H]5CO)O[C@@H]4CO)O[C@@H]3CO` [β-cyclodextrin]: the aqueous solubility in data set [8] is given as 1.8 g per 100 ml of water.
